Data taken from patent US10543212B2, “Substituted amines for treating cardiac diseases” (Cardurion Pharmaceuticals, LLC, priority 2017, dated 2020).
Where a name gives a salt, the structure may show the parent alone.

What follows are molecules tested against T1, Human full-length CaMKIIδ (Homo sapiens, UniProt Q13557) (assay: Human CaMKII enzyme inhibition assay (radiometric kinase assay)). Settings: 3 μM compound; 500 nM ATP; 0.5 nM CaMKIIδ; read-out: CaMKIIδ inhibitory activity (%) at 3 μM.
T1 construct: Human full-length CaMKIIδ (Cat #02-111) was obtained from Carna Biosciences; GST; purchased Carna Biosciences 02-111
Format: biochemical
Description: In Vitro CaMKIIδ Inhibitory Activity was Evaluated by an Enzyme Assay.
Human CaMKII Enzyme Inhibition Assay
Kinase assay for CaMKIIs was performed using the radiometric assay. Human full-length CaMKIIδ (Cat #02-111) was obtained from Carna Biosciences (Kobe, Japan).
Enzyme reactions were performed in 25 mM HEPES, pH 7.5, with 5 mM magnesium chloride, 1 mM calcium chloride, 10 μg/mL Calmodulin, 2 mM DTT, 0.01% Tween20 and 500 nM ATP (0.2 μCi/well of [γ-33P] ATP) containing 0.5 nM CaMKIIδ and 0.1 μM autophosphorylation peptide (KKALRRQETVDAL)(Toray Research Center).
After incubating the enzyme, peptide, and compounds for 5 min, kinase reactions were initiated by adding ATP, followed by incubation for 60 min at room temperature in a total volume of 50 μL. The reactions were terminated by the addition of 10% trichloroacetic acid (final concentration). The [γ-33P]-phosphorylated proteins were filtered in a Harvest Plate (Merck Millipore) with a Cell Harvester (PerkinElmer) and then free [γ-33P] ATP was washed out with 3% phosphoric acid. The plates were dried, followed by the addition of 40 μl of MicroScintO (PerkinElmer). The radioactivity was counted by a TopCount scintillation counter (PerkinElmer). The signals of the reaction without enzyme were defined as 100% inhibitory activity and those of the reaction without inhibitors as 0% inhibitory activity. In vitro CaMKIIδ inhibitory activity was evaluated by % inhibitory activity of 3 μM compound concentration.

Compound	inhibition at 3 µM
COc1ccccc1Nc1ncc(-c2ccc(C#N)c(O[C@@H](C)Cn3cnnn3)c2)cn1 [Example 16, 4-(2-((2-methoxy-phenyl)amino)pyrimidin-5-yl)-2-(((2S)-1-(1H-tetrazol-1-yl)propan-2-yl)oxy)benzonitrile]	99%
COc1cc(CNC2CC2)ccc1Nc1ncc(-c2ccc(C#N)c(O[C@@H](C)Cn3cncn3)c2)cn1 [Example 33, 4-(2-((4-((cyclopropylami-no)methyl)-2-methoxy-phenyl)amino)pyrimidin-5-yl)-2-(((2S)-1-(1H-1,2,4-triazol-1-yl)propan-2-yl)oxy)benzonitrile dihydrochloride]	98%
COc1cc(C2CCNCC2)ccc1Nc1ncc(-c2ccc(C#N)c(O[C@@H](C)Cn3cncn3)c2)cn1 [Example 50, 4-(2-((2-methoxy-4-(piperidin-4-yl)phenyl)amino)pyrimidin-5-yl)-2-(((2S)-1-(1H-1,2,4-triazol-1-yl)propan-2-yl)oxy)benzonitrile]	99%
COc1cc(N2CCC(N3CCOCC3)CC2)ccc1Nc1ncc(-c2ccc(Cl)c(O[C@@H](C)Cn3ccnc3)c2)cn1 [Example 58, 5-(4-chloro-3-(((2S)-1-(1H-imidazol-1-yl)propan-2-yl)oxy)phenyl)-N-(2-methoxy-4-(4-(morpholin-4-yl)piperidin-1-yl)phenyl)pyrimidin-2-amine]	99%
COc1cc(C(=O)N2CCOCC2)ccc1Nc1ncc(-c2ccc(C#N)c(O[C@@H](C)Cn3cncn3)c2)cn1 [Example 72, 4-(2-((2-methoxy-4-(morpholin-4-ylcar-bonyl)phenyl)amino)pyrimidin-5-yl)-2-(((2S)-1-(1H-1,2,4-triazol-1-yl)propan-2-yl)oxy)benzonitrile]	97%
COc1cc(C(=O)N2CCN(C)CC2)ccc1Nc1ncc(-c2ccc(C#N)c(O[C@@H](C)Cn3cncn3)c2)cn1 [Example 73, 4-(2-((2-methoxy-4-((4-methylpiperazin-1-yl)car-bonyl)phenyl)amino)pyrimidin-5-yl)-2-(((2S)-1-(1H-1,2,4-triazol-1-yl)propan-2-yl)oxy)benzonitrile]	97%
COc1cc(C(=O)N2CCOCC2)ccc1Nc1ncc(-c2ccc(C#N)c(O[C@@H](C)Cn3cnnn3)c2)cn1 [Example 82, 4-(2-((2-methoxy-4-(morpholin-4-ylcar-bonyl)phenyl)amino)pyrimidin-5-yl)-2-(((2S)-1-(1H-tetrazol-1-yl)propan-2-yl)oxy)benzonitrile]	98%
COc1cc(C(=O)NC2CCOCC2)ccc1Nc1ncc(-c2ccc(C#N)c(O[C@@H](C)Cn3cnnn3)c2)cn1 [Example 87, 4-((5-(4-cyano-3-(((2S)-1-(1H-tetrazol-1-yl)propan-2-yl)oxy)phenyl)pyrimidin-2-yl)amino)-3-methoxy-N-(tetrahydro-2H-pyran-4-yl)benzamide]	98%
COc1cc(C(=O)N2CC3(CN(C)C3)C2)ccc1Nc1ncc(-c2ccc(C#N)c(O[C@@H](C)Cn3cncn3)c2)cn1 [Example 147, 4-(2-((2-methoxy-4-((6-methyl-2,6-diazaspiro[3.3]hept-2-yl)carbonyl)phenyl)ami-no)pyrimidin-5-yl)-2-(((2S)-1-(1H-1,2,4-triazol-1-yl)propan-2-yl)oxy)benzonitrile]	95%

More lines, now with the values ahead:

inhibition at 3 µM	Compound
98%	COc1cc(N2CCC(N3CCOCC3)CC2)ccc1Nc1ncc(-c2ccc(C#N)c(O[C@@H](C)Cn3cnnc3)c2)cn1 [Example 17, 4-(2-((2-methoxy-4-(4-(morpholin-4-yl)piperidin-1-yl)phenyl)amino)pyrimidin-5-yl)-2-(((2S)-1-(4H-1,2,4-triazol-4-yl)propan-2-yl)oxy)benzonitrile]
99%	COc1cc(N2CCC(N3CCNCC3)CC2)ccc1Nc1ncc(-c2ccc(C#N)c(O[C@@H](C)Cn3cnnn3)c2)cn1 [Example 34]
98%	COc1cc(N2CCC(N3CCOCC3)CC2)ccc1Nc1ncc(-c2ccc(C#N)c(O[C@@H](C)Cn3ccnc3)c2)cn1 [Example 39, 2-(((2S)-1-(1H-imidazol-1-yl)propan-2-yl)oxy)-4-(2-((2-methoxy-4-(4-(morpholin-4-yl)piperidin-1-yl)phenyl)amino)pyrimidin-5-yl)benzonitrile]
99%	COc1cc(N2CCC(N3CCCCC3)CC2)ccc1Nc1ncc(-c2ccc(C#N)c(O[C@@H](C)Cn3cnnn3)c2)cn1 [Example 45, 4-(2-((4-(1,4′-bipiperidine-1′-yl)-2-methoxyphenyl)amino)pyrimidin-5-yl)-2-(((2S)-1-(1H-tetrazol-1-yl)propan-2-yl)oxy)benzonitrile]
100%	COc1cc(CNC2CC2)ccc1Nc1ncc(-c2ccc(C#N)c(O[C@@H](C)Cn3cnnn3)c2)cn1 [Example 52, 4-(2-((4-((cyclopropylami-no)methyl)-2-methoxy-phenyl)amino)pyrimidin-5-yl)-2-(((2S)-1-(1H-tetrazol-1-yl)propan-2-yl)oxy)benzonitrile hydrochloride]
98%	COc1nc(N2CCC(N3CCOCC3)CC2)ncc1Nc1ncc(-c2ccc(C#N)c(O[C@@H](C)Cn3cnnn3)c2)cn1 [Example 56, 4-(2-((4-methoxy-2-(4-(morpholin-4-yl)piperidin-1-yl)pyrimidin-5-yl)amino)pyrimidin-5-yl)-2-(((2S)-1-(1H-tetrazol-1-yl)propan-2-yl)oxy)benzonitrile]
99%	COc1cc(N2CCC(N3CCOCC3)CC2)ncc1Nc1ncc(-c2ccc(C#N)c(O[C@@H](C)Cn3cnnn3)c2)cn1 [Example 57, 4-(2-((4-methoxy-6-(4-(morpholin-4-yl)piperidin-1-yl)pyridin-3-yl)amino)pyrimidin-5-yl)-2-(((2S)-1-(1H-tetrazol-1-yl)propan-2-yl)oxy)benzonitrile]
99%	COc1cc(N2CCC(N3CCOCC3)CC2)ccc1Nc1ncc(-c2ccc(Cl)c(O[C@@H](C)Cn3cnnn3)c2)cn1 [Example 60, 5-(4-chloro-3-(((2S)-1-(1H-tetrazol-1-yl)propan-2-yl)oxy)phenyl)-N-(2-methoxy-4-(4-(morpholin-4-yl)piperidin-1-yl)phenyl)pyrimidin-2-amine]
98%	COc1cc(C2CCN(C3COC3)CC2)ccc1Nc1ncc(-c2ccc(C#N)c(O[C@@H](C)Cn3cnnn3)c2)cn1 [Example 75, 4-(2-((2-methoxy-4-(1-(oxetan-3-yl)piperidin-4-yl)phenyl)amino)pyrimidin-5-yl)-2-(((2S)-1-(1H-tetrazol-1-yl)propan-2-yl)oxy)benzonitrile]
98%	COCCN1CCC(c2ccc(Nc3ncc(-c4ccc(C#N)c(O[C@@H](C)Cn5cnnn5)c4)cn3)c(OC)c2)CC1 [Example 85, 4-(2-((2-methoxy-4-(1-(2-methoxyethyl)piperidin-4-yl)phenyl)amino)pyrimidin-5-yl)-2-(((2S)-1-(1H-tetrazol-1-yl)propan-2-yl)oxy)benzonitrile]
98%	COc1cc(C(=O)N2CCC(OC)CC2)ccc1Nc1ncc(-c2ccc(C#N)c(O[C@@H](C)Cn3cnnn3)c2)cn1 [Example 152, 4-(2-((2-methoxy-4-((4-methoxypiperidin-1-yl)carbonyl)phenyl)ami-no)pyrimidin-5-yl)-2-(((2S)-1-(1H-tetrazol-1-yl)propan-2-yl)oxy)benzonitrile]
